Results reported in ChEMBL document CHEMBL5321290, “Discovery of the Diphenyl 6-Oxo-1,6-dihydropyridazine-3-carboxylate/carboxamide Analogue J27 for the Treatment of Acute Lung Injury and Sepsis by Targeting JNK2 and Inhibiting the JNK2-NF-κB/MAPK Pathway” (J Med Chem, 2023).
The source made the active and inactive calls. The rule behind the calls is not given here.

Legend:
[1] = tested on: J774.A1; test: Antiinflammatory activity against mouse J774A.1 cells assessed as inhibition of LPS-stimulated TNFalpha release measured at 10 uM after 30 mins by ELISA relative to control; type: functional; settings: for inhibition at 10 µM: J774.A1, 0.5 h
[2] = tested on: J774.A1; test: Antiinflammatory activity against mouse J774A.1 cells assessed as inhibition of LPS-stimulated IL6 release measured at 10 uM after 30 mins by ELISA relative to control; type: functional; settings: for inhibition at 10 µM: J774.A1, 0.5 h

For COc1cc2ncnc(Nc3ccc(F)c(OC(=O)c4nn(-c5ccc(C)cc5)c(=O)cc4C)c3)c2cc1OC, the inhibition at 10 µM [1] was 34.9% and the inhibition at 10 µM [2] was 48%.
For COc1cc2ncnc(Oc3ccc(NC(=O)c4nn(-c5ccc(F)cc5)c(=O)cc4C)cc3)c2cc1OC, the inhibition at 10 µM [1] was 70.1% and the inhibition at 10 µM [2] was 20.6%.
For COc1ccc(-n2nc(C(=O)Nc3ccc(Oc4ccnc5cc(OC)c(OC)cc45)cc3)c(C)cc2=O)cc1, the inhibition at 10 µM [1] was 12.1% and the inhibition [2] was “inactive”.
CCc1ccccc1-n1nc(C(=O)Oc2cc(Nc3ncnc4cc(OC)c(OC)cc34)ccc2F)c(C)cc1=O was tested, and the inhibition [1] was “inactive” and the inhibition [2] was “inactive”.
Work on COc1cc2ncnc(Nc3ccc(F)c(OC(=O)c4nn(-c5ccc(F)cc5)c(=O)cc4C)c3)c2cc1OC yielded an inhibition at 10 µM [1] of 38.8% and an inhibition at 10 µM [2] of 46.5%.
In the case of COc1cc2ncnc(Oc3cccc(NC(=O)c4nn(-c5ccc(C)cc5)c(=O)cc4C)c3)c2cc1OC, the inhibition [1] is reported as “inactive” and the inhibition at 10 µM [2] is reported as 47.3%.
COc1cc2ncnc(Oc3ccc(NC(=O)c4nn(-c5ccc(C)cc5)c(=O)cc4C)cc3)c2cc1OC gave an inhibition at 10 µM [1] of 64% and an inhibition at 10 µM [2] of 63%.
In the case of COc1cc2ncnc(Nc3ccc(F)c(OC(=O)c4nn(-c5ccccc5)c(=O)cc4C)c3)c2cc1OC, the inhibition at 10 µM [1] is reported as 49.6% and the inhibition at 10 µM [2] is reported as 32.1%.
In the case of CCc1ccccc1-n1nc(C(=O)Nc2cccc(Oc3ccnc4cc(OC)c(OC)cc34)c2)c(C)cc1=O, the inhibition at 10 µM [1] is reported as 63.4% and the inhibition at 10 µM [2] is reported as 25.1%.
With COc1cc2ncnc(Nc3ccc(C)c(OC(=O)c4nn(-c5ccccc5)c(=O)cc4C)c3)c2cc1OC the inhibition [1] was “inactive” and the inhibition at 10 µM [2] was 20.7%.
COc1cc2ncnc(Oc3cccc(NC(=O)c4nn(-c5ccc(F)cc5)c(=O)cc4C)c3)c2cc1OC was tested, and the inhibition [1] was “inactive” and the inhibition at 10 µM [2] was 16.1%.
In the case of COc1cc2nccc(Oc3cccc(NC(=O)c4nn(-c5ccc(C)cc5)c(=O)cc4C)c3)c2cc1OC, the inhibition [1] is reported as “inactive” and the inhibition [2] is reported as “inactive”.
COc1cc2nccc(Oc3ccc(NC(=O)c4nn(-c5ccccc5)c(=O)cc4C)cc3)c2cc1OC was tested, and the inhibition at 10 µM [1] was 52% and the inhibition [2] was “inactive”.
For COc1cc2ncnc(Nc3ccc(OC(=O)c4nn(-c5ccccc5)c(=O)cc4C)c(C)c3)c2cc1OC, the inhibition [1] was “inactive” and the inhibition at 10 µM [2] was 23.9%.
CCc1ccc(-n2nc(C(=O)Nc3cccc(Oc4ncnc5cc(OC)c(OC)cc45)c3)c(C)cc2=O)cc1 was tested, and the inhibition [1] was “inactive” and the inhibition at 10 µM [2] was 39%.
In the case of COc1ccc(-n2nc(C(=O)Nc3ccc(Oc4ncnc5cc(OC)c(OC)cc45)cc3)c(C)cc2=O)cc1, the inhibition at 10 µM [1] is reported as 57.5% and the inhibition [2] is reported as “inactive”.
Compound COc1cc2ncnc(Oc3ccc(NC(=O)c4nn(-c5ccccc5)c(=O)cc4C)cc3)c2cc1OC has an inhibition at 10 µM [1] of 46.9% and an inhibition at 10 µM [2] of 54.8%.
With COc1ccc(-n2nc(C(=O)Nc3cccc(Oc4ccnc5cc(OC)c(OC)cc45)c3)c(C)cc2=O)cc1 the inhibition [1] was “inactive” and the inhibition [2] was “inactive”.
CCc1ccccc1-n1nc(C(=O)Nc2ccc(Oc3ncnc4cc(OC)c(OC)cc34)cc2)c(C)cc1=O showed an inhibition at 10 µM [1] of 58% and an inhibition at 10 µM [2] of 18.4%.
In the case of COc1ccc(-n2nc(C(=O)Nc3cccc(Oc4ncnc5cc(OC)c(OC)cc45)c3)c(C)cc2=O)cc1, the inhibition [1] is reported as “inactive” and the inhibition at 10 µM [2] is reported as 7.64%.
With CCc1ccccc1-n1nc(C(=O)Nc2ccc(Oc3ccnc4cc(OC)c(OC)cc34)cc2)c(C)cc1=O the inhibition at 10 µM [1] was 27.9% and the inhibition at 10 µM [2] was 55.1%.
Compound COc1cc2nccc(Oc3cccc(NC(=O)c4nn(-c5ccc(F)cc5)c(=O)cc4C)c3)c2cc1OC has an inhibition at 10 µM [1] of 20.6% and an inhibition at 10 µM [2] of 38%.
COc1cc2nccc(Oc3ccc(NC(=O)c4nn(-c5ccc(F)cc5)c(=O)cc4C)cc3)c2cc1OC was tested, and the inhibition [1] was “inactive” and the inhibition at 10 µM [2] was 5.11%.
CCc1ccc(-n2nc(C(=O)Oc3cc(Nc4ncnc5cc(OC)c(OC)cc45)ccc3F)c(C)cc2=O)cc1 showed an inhibition at 10 µM [1] of 21.8% and an inhibition at 10 µM [2] of 38.3%.
In the case of COc1cc2ncnc(Oc3cccc(NC(=O)c4nn(-c5ccccc5)c(=O)cc4C)c3)c2cc1OC, the inhibition [1] is reported as “inactive” and the inhibition [2] is reported as “inactive”.
In the case of COc1cc2nccc(Oc3cccc(NC(=O)c4nn(-c5ccccc5)c(=O)cc4C)c3)c2cc1OC, the inhibition at 10 µM [1] is reported as 0.35% and the inhibition [2] is reported as “inactive”.
With CCc1ccccc1-n1nc(C(=O)Nc2cccc(Oc3ncnc4cc(OC)c(OC)cc34)c2)c(C)cc1=O the inhibition [1] was “inactive” and the inhibition [2] was “inactive”.
CCc1ccc(-n2nc(C(=O)Nc3ccc(Oc4ccnc5cc(OC)c(OC)cc45)cc3)c(C)cc2=O)cc1 was tested, and the inhibition at 10 µM [1] was 61.9% and the inhibition at 10 µM [2] was 34.9%.
For COc1ccc(-n2nc(C(=O)Oc3cc(Nc4ncnc5cc(OC)c(OC)cc45)ccc3F)c(C)cc2=O)cc1, the inhibition [1] was “inactive” and the inhibition at 10 µM [2] was 31.9%.
